Some test systems named below: HT-29; SK-MEL-28; MDA-N; MOLT-4; ACHN; SR; HCC 2998; SNB-19; NCI/ADR-RES; NCI-H522; SK-MEL-5; SNB-75; MDA-MB-231; IGROV-1; Hs-578T; HCT-116; T47D; NCI-H226; PC-3.
Common to all, as to test: NCI anticancer screen, dose series, 48 h

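Five compound concentrations were applied to cells in 96-well plates for 48 hours; endpoints were derived by simple linear interpolation of the resulting dose-response curve. GI50: concentration for 50% inhibition of growth.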 Calls of active or inactive are those of the source. No stated cut-off is given here; in the data, active = GI50 up to about 1.1 µM and inactive = higher. Bounds are passed on as bounds.

As for `COC(=O)C1(Cc2ccccc2)Cc2c(C)ccc(C)c2C1=O` (stereo not drawn), the GI50 with HT-29 is 19.8 µM (inactive); with SK-MEL-28, 42.5 µM (inactive); in the test on MDA-N it was 37.1 µM (inactive); in the test with MOLT-4, 18.7 µM (inactive); in the test with ACHN it was 26.9 µM (inactive); in the test with SR, 23.9 µM (inactive). The GI50 in the test with HCC 2998 is 28 µM (inactive); with SNB-19, 48.4 µM (inactive); with NCI/ADR-RES, 28.1 µM (inactive); in the test with NCI-H522, 19.2 µM (inactive); in the test with SK-MEL-5, 11.3 µM (inactive); in the test on SNB-75 it was 17.3 µM (inactive). Moreover, the GI50 in the test with MDA-MB-231 was 15.7 µM (inactive); in the test with IGROV-1, 36.7 µM (inactive); in the test with Hs-578T, 5.64 µM (inactive); with HCT-116 it was 19.8 µM (inactive); with T47D, 16.7 µM (inactive); in the test with NCI-H226, 21.1 µM (inactive). Also, the GI50 in the test with PC-3 was 26.3 µM (inactive).
As to `CC(=O)O/C=C\OC1CCCC1`, the GI50 with HT-29, in the test with SK-MEL-28, in the test on MDA-N, in the test with MOLT-4, with ACHN and with SR was > 100 µM (inactive) each time. In addition, the GI50 is > 100 µM (inactive) in the test on HCC 2998; > 100 µM (inactive) in the test on SNB-19; > 100 µM (inactive) in the test on NCI/ADR-RES; > 100 µM (inactive) with NCI-H522; > 100 µM (inactive) in the test with SK-MEL-5; 55 µM (inactive) in the test on SNB-75. The GI50 with MDA-MB-231, in the test on IGROV-1, in the test with Hs-578T, in the test with T47D, with NCI-H226 and in the test with PC-3 was > 100 µM (inactive) throughout.
As for `c1cnc2c(c1)Nc1cnncc1S2`, the GI50 with HT-29 is > 100 µM (inactive); with SK-MEL-28, > 100 µM (inactive); in the test with MDA-N it was > 100 µM (inactive); with MOLT-4, > 100 µM (inactive); in the test on ACHN, > 100 µM (inactive); in the test with SR, 53.3 µM (inactive). The GI50 in the test on HCC 2998 was > 100 µM (inactive); with SNB-19, > 100 µM (inactive); with NCI/ADR-RES it was > 100 µM (inactive); in the test on NCI-H522, > 100 µM (inactive); in the test with SK-MEL-5 it was > 100 µM (inactive); in the test with SNB-75, 12.2 µM (inactive). Moreover, the GI50 in the test with MDA-MB-231 is > 100 µM (inactive); in the test with IGROV-1 it was > 100 µM (inactive); in the test on Hs-578T it was > 100 µM (inactive); with HCT-116, > 100 µM (inactive); with T47D, > 100 µM (inactive); with NCI-H226, 86.9 µM (inactive). Moreover, the GI50 in the test on PC-3 is > 100 µM (inactive).
For the compound `Oc1ccc(C2Oc3cc(O)cc4c3C2c2cc(O)cc3c2C(c2cc(O)cc5c2C4C(c2ccc(O)cc2)O5)C(c2ccc(O)cc2)O3)cc1` (stereo not drawn), the GI50 was 5.28 µM (inactive) with SK-MEL-28; 6.89 µM (inactive) in the test with MOLT-4; > 25 µM (inactive) with ACHN; 6.35 µM (inactive) in the test with SR; 8.15 µM (inactive) with HCC 2998; 4.78 µM (inactive) in the test on SNB-19. For the same compound, the GI50 is 6.55 µM (inactive) in the test with NCI-H522; 10.9 µM (inactive) with SK-MEL-5; 3.19 µM (inactive) in the test with SNB-75; 7.48 µM (inactive) in the test with HCT-116; 6.19 µM (inactive) in the test with NCI-H226.
As to `COC(=O)CC1(O)C(=O)OCc2c1cc1n(c2=O)Cc2c-1nc1ccccc1c2OC` (stereo not drawn), the GI50 with HT-29 was 2.17 µM (inactive); in the test on SK-MEL-28, 27.5 µM (inactive); in the test on MOLT-4, 0.017 µM (active); in the test with ACHN it was 0.0689 µM (active); in the test on SR, < 0.01 µM (active); in the test with HCC 2998, 3.71 µM (inactive). Besides, the GI50 was 0.6 µM (active) with SNB-19; 0.29 µM (active) in the test with NCI-H522; 0.358 µM (active) in the test with SK-MEL-5; 0.232 µM (active) in the test on SNB-75; 2.94 µM (inactive) in the test with IGROV-1; 0.388 µM (active) with HCT-116. The GI50 in the test with NCI-H226 was 0.115 µM (active).
Turning to `O=C(N/C(=C\c1cc(Cl)ccc1Cl)c1nc2c(O)nc(S)nc2[nH]1)c1ccccc1`, the GI50 in the test on HT-29 is 20.8 µM (inactive); in the test on SK-MEL-28, 28.1 µM (inactive); in the test on MOLT-4 it was 16.1 µM (inactive); with ACHN, 37.1 µM (inactive); with SR, 25.5 µM (inactive); in the test on HCC 2998, 16.4 µM (inactive). The GI50 is > 55.2 µM (inactive) with SNB-19; 38 µM (inactive) in the test with NCI-H522; 47 µM (inactive) in the test with SK-MEL-5; 34.2 µM (inactive) in the test on SNB-75; > 42.4 µM (inactive) with IGROV-1; 7.91 µM (inactive) in the test with HCT-116. Further, the GI50 with NCI-H226 is > 100 µM (inactive).
`CO/N=C(/C(=O)OC)c1ccccc1COc1cccc(C(F)(F)F)c1`: the GI50 in the test on HT-29 is 46.9 µM (inactive); in the test on SK-MEL-28, 78.7 µM (inactive); in the test with MDA-N it was 27.4 µM (inactive); with MOLT-4, 10.6 µM (inactive); in the test with ACHN, 33.3 µM (inactive); with SNB-19, 71.4 µM (inactive). Besides, the GI50 was 36.9 µM (inactive) in the test on NCI/ADR-RES; 20 µM (inactive) with NCI-H522; 4.79 µM (inactive) in the test with SK-MEL-5; 31.7 µM (inactive) in the test on SNB-75; 72.8 µM (inactive) in the test with MDA-MB-231; 30.2 µM (inactive) in the test with IGROV-1. The GI50 in the test with Hs-578T is 25.8 µM (inactive); with HCT-116, 10.8 µM (inactive); in the test on T47D, 9.55 µM (inactive); with NCI-H226, 29.4 µM (inactive); in the test with PC-3, 22 µM (inactive).
In the case of `Cc1cc(N(CCC#N)CCC#N)ccc1/C=C1N=C(/C=C\c2ccccc2)OC\1=O`, the GI50 with HT-29 was > 100 µM (inactive); in the test with SK-MEL-28, > 100 µM (inactive); with MOLT-4 it was > 100 µM (inactive); with ACHN, > 100 µM (inactive); in the test with SR, 30.3 µM (inactive); in the test with HCC 2998 it was > 100 µM (inactive). Also, the GI50 in the test with SNB-19, with NCI-H522, in the test with SK-MEL-5, in the test with SNB-75, in the test with IGROV-1 and in the test with HCT-116 was > 100 µM (inactive) throughout. Moreover, in the test with NCI-H226, the GI50 is > 100 µM (inactive).
In the case of `O=C(Nc1ccc(Sc2ccc(/N=N/c3c(O)c(S(=O)(=O)O)cc4cc(S(=O)(=O)O)ccc34)cc2)cc1)c1ccc(/N=N/c2c(O)c(S(=O)(=O)O)cc3cc(S(=O)(=O)O)ccc23)cc1`, the GI50 was 32.1 µM (inactive) in the test on HT-29; 32.1 µM (inactive) in the test on SK-MEL-28; 9.25 µM (inactive) in the test on MOLT-4; 29.9 µM (inactive) in the test on ACHN; 10.9 µM (inactive) in the test on SR; > 100 µM (inactive) with HCC 2998. Further, the GI50 with SNB-19 is 48.3 µM (inactive); in the test with NCI-H522 it was 12.2 µM (inactive); in the test with SK-MEL-5, 13.5 µM (inactive); in the test on SNB-75, > 100 µM (inactive); with IGROV-1, 35.6 µM (inactive); in the test on HCT-116, 29.8 µM (inactive). Moreover, the GI50 with NCI-H226 was 39.3 µM (inactive).
Regarding `CSc1nsc(-c2ccccc2)[s+]1.[O-][Cl+3]([O-])([O-])[O-]`, the GI50 in the test on SK-MEL-28, in the test with MOLT-4, with ACHN, in the test with SR, in the test on HCC 2998 and with SNB-19 was > 100 µM (inactive) each time. The GI50 in the test on NCI-H522, with SK-MEL-5, with SNB-75, in the test with IGROV-1, with HCT-116 and in the test on NCI-H226 was > 100 µM (inactive) each time.
As for `Cc1cc(Cl)ccc1NC(=O)CC1SC(NC(=O)c2ccccc2Cl)=NC1=O` (stereo not drawn), the GI50 in the test on HT-29 was 21.5 µM (inactive); in the test on SK-MEL-28, 22 µM (inactive); in the test on MOLT-4 it was 2.89 µM (inactive); in the test on ACHN, 16.9 µM (inactive); in the test on SR, 15.3 µM (inactive); with HCC 2998, 59.4 µM (inactive). Also, the GI50 was > 100 µM (inactive) in the test with SNB-19; 15.1 µM (inactive) in the test on NCI-H522; 30.8 µM (inactive) with SK-MEL-5; 19.2 µM (inactive) in the test on SNB-75; 38.2 µM (inactive) in the test with IGROV-1; 17.9 µM (inactive) in the test with HCT-116. Besides, the GI50 with NCI-H226 is 25.2 µM (inactive).
As to `COc1cc([C@@H]2c3cc(O)c(OC)cc3C=C(C(N)=O)[C@H]2C(N)=O)ccc1O`, the GI50 in the test with HT-29, with SK-MEL-28, in the test with MDA-N, with MOLT-4, with ACHN and with SR was > 100 µM (inactive) in each case. Besides, the GI50 in the test with HCC 2998, with SNB-19, in the test with NCI/ADR-RES, in the test on NCI-H522, with SK-MEL-5 and in the test on SNB-75 was > 100 µM (inactive) each time. For the same compound, the GI50 in the test on MDA-MB-231, with IGROV-1, in the test on Hs-578T, in the test with HCT-116, in the test on T47D and in the test on NCI-H226 was > 100 µM (inactive) throughout. Moreover, the GI50 in the test with PC-3 was > 100 µM (inactive).
As for `O=C(/C=C/c1cccs1)c1ccc(Cl)cc1`, the GI50 in the test with HT-29 is 39.7 µM (inactive); with SK-MEL-28, > 100 µM (inactive); in the test with MDA-N, 44.9 µM (inactive); in the test on MOLT-4 it was 23.3 µM (inactive); with ACHN, > 100 µM (inactive); in the test with SR, 28.1 µM (inactive). The GI50 is > 100 µM (inactive) in the test with HCC 2998; > 100 µM (inactive) with SNB-19; > 100 µM (inactive) in the test with NCI/ADR-RES; 65.2 µM (inactive) in the test with SK-MEL-5; > 100 µM (inactive) in the test on SNB-75; > 100 µM (inactive) in the test on MDA-MB-231. The GI50 in the test with IGROV-1 was > 100 µM (inactive); in the test on Hs-578T, > 100 µM (inactive); with HCT-116 it was 41.5 µM (inactive); in the test with T47D it was 56.1 µM (inactive); with NCI-H226, 67.8 µM (inactive); in the test on PC-3 it was > 100 µM (inactive).

The record behind these values is ChEMBL document CHEMBL1201862, “PubChem BioAssay data set” (2004).
